Columns and labels:
[1] = system: HCT-116; assay: NCI in vitro cytotoxicity, HCT-116; details: Homo sapiens
Description: (§3) For these compounds results are expressed as growth inhibition (GI50) values as per NCI protocol.

[2] = system: OVCAR-8; assay: NCI in vitro cytotoxicity, OVCAR-8; details: Homo sapiens
Description: as §3

[3] = system: HOP-92; assay: NCI in vitro cytotoxicity, HOP-92; details: Homo sapiens
Description: as §3

[4] = system: U251; assay: NCI in vitro cytotoxicity, U251; details: Homo sapiens, U-251
Description: as §3

[5] = system: DU-145; assay: NCI in vitro cytotoxicity, DU-145; details: Homo sapiens
Description: as §3

[6] = system: SF-539; assay: NCI in vitro cytotoxicity, SF-539; details: Homo sapiens
Description: as §3

[7] = system: KM12; assay: NCI in vitro cytotoxicity, KM12; details: Homo sapiens
Description: as §3

[8] = system: Colon cancer cell lines; assay: cells; format: cell-based; details: for LC50: read-out: Log10 LC50 mean graph midpoint (MG_MID) (converted)
Description: (§1) The mean graph midpoint values of Log10 GI50 as well as Log10 LC50 for the compounds 2i, 5i and Hoechst 33258 (NSC-322921) is listed in Table 2.
(§2) Each cancer type represents the average of six to eight different cancer cell lines.

[9] = system: Prostate cancer cell lines; assay: cells; format: cell-based; details: for CC50: read-out: Log10 LC50 mean graph midpoint (MG_MID) (converted)
Description: as §1, §2

[10] = system: Melanoma cancer cell lines; assay: cells; format: cell-based; details: for LC50: read-out: Log10 LC50 mean graph midpoint (MG_MID) (converted)
Description: as §1, §2

[11] = system: Non-small-cell lung cancer cell lines; assay: cells; format: cell-based; details: for LC50 (lethal concentration 50%): read-out: Log10 LC50 mean graph midpoint (MG_MID) (converted)
Description: as §1, §2

[12] = system: CNS cancer cell lines; assay: cells; format: cell-based; details: for CC50: read-out: Log10 LC50 mean graph midpoint (MG_MID) (converted)
Description: as §1, §2

[13] = system: Ovarian cancer cell lines; assay: cells; format: cell-based; details: for CC50: read-out: Log10 LC50 mean graph midpoint (MG_MID) (converted)
Description: as §1, §2

[14] = system: T-47D; assay: NCI in vitro cytotoxicity, T-47D; details: Homo sapiens, T47D
Description: as §3

[15] = system: NCI-H322M; assay: NCI in vitro cytotoxicity, NCI-H322M; details: Homo sapiens
Description: as §3

[16] = system: 786-0; assay: NCI in vitro cytotoxicity, 786-0; details: Homo sapiens
Description: as §3

[17] = system: HCC-2998; assay: NCI in vitro cytotoxicity, HCC-2998; details: Homo sapiens
Description: as §3

[18] = system: NCI-H460; assay: NCI in vitro cytotoxicity, NCI-H460; details: Homo sapiens
Description: as §3

[19] = system: COLO 205; assay: NCI in vitro cytotoxicity, COLO 205; details: Homo sapiens
Description: as §3

[20] = system: HCT-15; assay: NCI in vitro cytotoxicity, HCT-15; details: Homo sapiens
Description: as §3

[21] = system: M14; assay: NCI in vitro cytotoxicity, M14; details: Homo sapiens
Description: as §3

[22] = system: HOP-62; assay: NCI in vitro cytotoxicity, HOP-62; details: Homo sapiens
Description: as §3

[23] = system: SW-620; assay: NCI in vitro cytotoxicity, SW-620; details: Homo sapiens
Description: as §3

[24] = system: A498; assay: NCI in vitro cytotoxicity, A498; details: Homo sapiens
Description: as §3

[25] = system: A549/ATCC; assay: NCI in vitro cytotoxicity, A549/ATCC; details: Homo sapiens
Description: as §3

[26] = system: SR (leukemia cell line); assay: NCI in vitro cytotoxicity, SR; details: Homo sapiens
Description: as §3

[27] = system: K-562; assay: NCI in vitro cytotoxicity, K-562; details: Homo sapiens, K562
Description: as §3

[28] = system: BT-549 (breast cancer cell line); assay: NCI in vitro cytotoxicity, BT-549; details: Homo sapiens
Description: as §3

| Compound | GI50 [1] | GI50 [2] | GI50 [3] | GI50 [4] | GI50 [5] | GI50 [6] | GI50 [7] | LC50 ([8]; Homo sapiens) | CC50 ([9]; Homo sapiens) | LC50 ([10]; Homo sapiens) | LC50 (lethal concentration 50%) ([11]; Homo sapiens) | CC50 ([12]; Homo sapiens) | CC50 ([13]; Homo sapiens) | GI50 [14] | GI50 [17] | GI50 [18] | GI50 [20] | GI50 [21] | GI50 [22] | GI50 [23] | other results |
| --- | --- | --- | --- | --- | --- | --- | --- | --- | --- | --- | --- | --- | --- | --- | --- | --- | --- | --- | --- | --- | --- |
| COc1cc(-c2nc(-c3ccc(-c4nc5cc(F)ccc5[nH]4)cc3)no2)cc(OC)c1OC [2i, 3-(4-(5-Fluoro-1H-benzo[d]imidazol-2-yl)phenyl)-5-(3,4,5-trimethoxyphenyl)-1,2,4-oxadiazole] | 2.13 µM | 2.36 µM | 1.76 µM | 3.03 µM | 3.96 µM | 3.37 µM | 3.08 µM | 75.9 µM | ≥ 100 µM | 35.5 µM | 75.9 µM | 91.2 µM | 87.1 µM | 2.72 µM | 6.13 µM | 2.97 µM | 3.15 µM | 3.23 µM | 3.21 µM | 3.61 µM | Log10 GI50 mean graph midpoint (MG_MID) ([8]; Colon, average of cell lines of the cancer type): −5.44; Log10 GI50 mean graph midpoint (MG_MID) ([9]; Prostate, average of cell lines of the cancer type): −5.51; Log10 GI50 mean graph midpoint (MG_MID) ([10]; Melanoma, average of cell lines of the cancer type): −5.55; Log10 GI50 mean graph midpoint (MG_MID) ([11]; Non-small-cell lung, average of cell lines of the cancer type): −5.47; Log10 GI50 mean graph midpoint (MG_MID) ([12]; CNS, average of cell lines of the cancer type): −5.39; Log10 GI50 mean graph midpoint (MG_MID) ([13]; Ovarian, average of cell lines of the cancer type): −5.49; GI50 [15]: 1.3 µM; GI50 [16]: 3.61 µM; GI50 [19]: 4.77 µM; GI50 [24]: 4.19 µM; GI50 [25]: 3.42 µM; GI50 [26]: 2.98 µM |
| COc1ccc2[nH]c(-c3ccc(-c4noc(-c5cc(OC)c(OC)c(OC)c5)n4)cc3)nc2c1 [5i, 3-(4-(5-Methoxy-1H-benzo[d]imidazol-2-yl)phenyl)-5-(3,4,5-trimethoxyphenyl)-1,2,4-oxadiazole] | 1.9 µM | 4.93 µM | 14.3 µM | 1.68 µM | 9.48 µM | 2 µM | 7.52 µM | 85.1 µM | 91.2 µM | 83.2 µM | 79.4 µM | 44.7 µM | 67.6 µM | 14.7 µM | 35.5 µM | 4.6 µM | 1.49 µM | 5.47 µM | 4.44 µM | 5.89 µM | GI50 [27]: 1.2 µM; GI50 [28]: 0.52 µM; GI50 ([8]; Homo sapiens, Colon, average of cell lines of the cancer type, read-out: Log10 GI50 mean graph midpoint (MG_MID) (converted)): 4.79 µM; GI50 ([9]; Homo sapiens, Prostate, average of cell lines of the cancer type, read-out: Log10 GI50 mean graph midpoint (MG_MID) (converted)): 14.1 µM; GI50 ([10]; Homo sapiens, Melanoma, average of cell lines of the cancer type, read-out: Log10 GI50 mean graph midpoint (MG_MID) (converted)): 7.59 µM; GI50 ([11]; Homo sapiens, Non-small-cell lung, average of cell lines of the cancer type, read-out: Log10 GI50 mean graph midpoint (MG_MID) (converted)): 8.71 µM; GI50 ([12]; Homo sapiens, CNS, average of cell lines of the cancer type, read-out: Log10 GI50 mean graph midpoint (MG_MID) (converted)): 6.31 µM; GI50 ([13]; Homo sapiens, Ovarian, average of cell lines of the cancer type, read-out: Log10 GI50 mean graph midpoint (MG_MID) (converted)): 7.59 µM; GI50 [24]: 28.5 µM; GI50 [25]: 5.65 µM; GI50 [26]: 0.71 µM |

From US9522907B2, “Anticancer agent and process for the preparation thereof” (COUNCIL OF SCIENTIFIC & INDUSTRIAL RESEARCH, priority 2014, dated 2016)
